Values of other authors in patent US5006550A, “Chroman esters of phenols and benzoic acids having retinoid-like activity” (Allergan, Inc., priority 1989, dated 1991).

Tested on: ornithine decarboxylase (ODC)
Details: background statement on retinoic acid

In the case of CC1=C(/C=C/C(C)=C/C=C/C(C)=C/C(=O)O)C(C)(C)CCC1 [Retinoic acid], the “inhibition of induction of ODC activity by TPA (in words)” value is listed as “inhibits this induction of ODC activity by TPA”.
